Experimental data from publication PMC12381718 (2025).

Assays:
[1] = system: ds26 (DNA, duplex) CAATCGGATCGAATTCGATCCGATTG; assay: CD titration; settings: K+ (100 mM potassium phosphate); 100 mM KPhos pH 7.4, 20 °C; 5 µM DNA; weak Ka seen by UV-visible
[2] = system: ds26 (DNA, duplex) CAATCGGATCGAATTCGATCCGATTG; assay: UV-visible titration; settings: K+ (100 mM potassium phosphate), 100 mM KPhos pH 7.4, ambient temperature, 10 µM ligand, apparent

| Structure (SMILES) | binding [1] | Ka ([2]; continuous 405 nm irradiation) | Ka [2] |
| --- | --- | --- | --- |
| C[n+]1ccc(-c2ccc3c(c2)CCc2cc(-c4cc[n+](C)cc4)ccc2/N=N/3)cc1 | no | 2.44 × 10^3 M^–1 |  |
| C[n+]1ccc(-c2ccc3c(c2)CCc2cc(-c4cc[n+](C)cc4)ccc2/N=N\3)cc1 |  |  | 2.53 × 10^3 M^–1 |
